For orientation: IC50 means the concentration needed to halve the response being measured. Higher therefore signals weaker potency.

The record followed here is publication PMC6686047, “Efficient Inhibition of Human Papillomavirus Infection by L2 Minor Capsid-Derived Lipopeptide” (mBio, 2019).

In data set [1] the test system is HPV-Lucia (HPV16 pseudovirus carrying Lucia). Conditions: for Relative anti-HPV activity: CHO-K1 cells, HPV-Lucia, Lucia activity at 36 hpi, potency compared with WT peptide (13-48, 100%) used at four concentrations.
Data set [2] deals with HPV-GFP (HPV16 pseudovirus carrying GFP). Format: cell-based. Conditions: HeLa cells; ∼500 nM lipopeptide during inoculation; GFP at 36 hpi.
Data set [3] deals with furin cleavage of HPV L2. Briefly: Furin cleavage of PSTCD-fused L2 (immunoblot). Format: cell-based, HPV16. Conditions: CHO-K1 cells, HPV-L2-PSTCD-3×FLAG MOI of 50; 500 nM dRVRK, 500 nM 13-46st, 100 nM BafA1, 1 μM γ-secretase inhibitor XXI; anti-FLAG immunoblot. How it is done:
(§1) FIG 5 The L2N lipopeptide blocks HPV entry without affecting HPV capsid priming and internalization. (A) Cell binding and uptake of L2N lipopeptide. HeLa cells were incubated with 500 nM FITC-m13-46st peptide for indicated times. Images were captured after three PBS washes. Bar, 25 μm. (B) L2N lipopeptide inhibits HPV-GFP entry. HeLa cells were treated with 500 nM L2N lipopeptide (13-46st) before (pre), during (co), or after (post) HPV-GFP inoculation. Mock, no peptide treatment. GFP intensity was analyzed at 36 hpi. Bar, 200 μm. (C) Peptide addition/withdrawal assays were performed as indicated in the schematic diagram (top). CHO-K1 cells were incubated with HPV-Lucia at 4°C for 2 h. […] Lucia activity was analyzed at 40 hpi. […] Intracellular L1 and L2 levels were determined by immunoblotting with MD2H11 and JWW-1, respectively. […] HPV L2 JWW-1 epitope exposure was analyzed by immunostaining with JWW-1 antibody (in red). […]
To further dissect how the L2N lipopeptide interfered with HPV entry, we tested whether furin cleavage, internalization, and JWW-1 epitope exposure of HPV were affected by peptide treatment in either CHO-K1 cells or HeLa cells. Furin cleavage was analyzed by infection of HPV PsV carrying Propionibacterium shermanii transcarboxylase domain (PSTCD)-fused L2. […] Internalization of viral particles was analyzed by detecting intracellular L1 and L2 at 2 h postinfection.
On the technique in general: Immunoblotting shows a protein as a band on a membrane.

Data set [4] has as its system intracellular HPV L1 and L2. Briefly: Immunoblot detection of intracellular L1 and L2. Format: cell-based, HPV16. Conditions: CHO-K1 cells, HPV-GFP MOI of 50; 500 nM 13-46st, 100 nM BafA1 or both for 24 h. The method, then:
as §1
FIG 6 The L2N lipopeptide blocks TGN trafficking of HPV, leading to rapid virion degradation. […] Localization of the TGN (green) was analyzed by immunostaining with anti-P230 antibody. […] The ratios of EdU puncta in the nucleus (B) or in the TGN (C) were quantified based on representative images under each condition. P values were determined by ordinary one-way ANOVA with Dunnett’s multiple-comparison test (n = 10) ****, P < 0.0001. […]

In data set [5] the test system is HeLa cells. Put plainly: L2N-FITC peptide binding and uptake assay. Format: cell-based, homo sapiens. Conditions: 500 nM FITC-m13-46st for indicated times, three PBS washes, fluorescence imaging. The method, then:
FIG 5 The L2N lipopeptide blocks HPV entry without affecting HPV capsid priming and internalization. (A) Cell binding and uptake of L2N lipopeptide. HeLa cells were incubated with 500 nM FITC-m13-46st peptide for indicated times. Images were captured after three PBS washes. Bar, 25 μm. (B) L2N lipopeptide inhibits HPV-GFP entry. HeLa cells were treated with 500 nM L2N lipopeptide (13-46st) before (pre), during (co), or after (post) HPV-GFP inoculation. Mock, no peptide treatment. GFP intensity was analyzed at 36 hpi. Bar, 200 μm. (C) Peptide addition/withdrawal assays were performed as indicated in the schematic diagram (top). CHO-K1 cells were incubated with HPV-Lucia at 4°C for 2 h. The 13-46st lipopeptide (500 nM) was subsequently added or withdrawn from the medium 1, 2, 4, 8, and 16 h after viral attachment. Lucia activity was analyzed at 40 hpi. (D) CHO-K1 cells were infected with HPV-L2-PSTCD-3×FLAG (MOI of 50) and treated with the indicated chemicals: 500 nM dRVRK, 500 nM L2N lipopeptide 13-46st (L2N), 100 nM BafA1, and 1 μM γ-secretase inhibitor XXI. L2 immunoblotting was performed with anti-FLAG antibody at 16 hpi. […] Intracellular L1 and L2 levels were determined by immunoblotting with MD2H11 and JWW-1, respectively. […] HPV L2 JWW-1 epitope exposure was analyzed by immunostaining with JWW-1 antibody (in red). […]

Bridge positions count the residues as written; N and C are the ends. Peptide text beside a SMILES is read from it. * marks the point of attachment. FITC = O=C1OC2(c3ccc(O)cc3Oc3cc(O)ccc32)c2ccc(NC(=S)*)cc21; Stearoyl = CCCCCCCCCCCCCCCCCC(=O)*

For “13-55CVIM: HPV16 L2N13-55 lipopeptide produced in 293T cells, CVIM motif isoprenylated, released by furin”, in data set [1], the “Relative anti-HPV activity” value stood at 10%. The “inhibition of HPV-GFP infection by L2N-CVIM lipopeptides (in words)” value (“inhibition of HPV-GFP infection” below) in data set [2] is given as “suppressed HPV-GFP infection”.

Regarding “SVIM: L2N13-48 peptide with cysteine-to-serine mutation in the CVIM motif, negative control”, in data set [1], the “Relative anti-HPV activity” value is 0%. For the same compound, the “inhibition of HPV-GFP infection” value in data set [2] is reported as “completely abolished their ability to inhibit HPV-GFP infection”.

Consider “13-48CVIM: HPV16 L2N13-48 lipopeptide produced in 293T cells, CVIM motif isoprenylated (geranylgeranylation), released by furin”, for which the “Relative anti-HPV activity” value in data set [1] was determined as 100%. In addition, the “inhibition of HPV-GFP infection” value in data set [2] is “suppressed HPV-GFP infection”.

Take `CCCCCCCCCC(=O)N[C@@H](CCCN=C(N)N)C(=O)N[C@H](C(=O)N[C@@H](CCCCN)C(=O)N[C@@H](CCCN=C(N)N)C(=O)CCl)C(C)C` [dRVRK] (HELM PEPTIDE1{[CCCCCCCCCC(=O)[*:2]].R.V.K.R.[ClC[*:1]]}$$$$V2.0): the “furin cleavage of L2” value in data set [3] is listed as “furin cleavage was inhibited”.

As to `CO/C1=C\C(C)=C\[C@@H](C)[C@@H](O)[C@@H](C)C/C(C)=C/C=C/[C@H](OC)[C@@H]([C@@H](C)[C@@H](O)[C@H](C)[C@@]2(O)C[C@@H](O)[C@H](C)[C@@H](C(C)C)O2)OC1=O` [BafA1, bafilomycin A1], the “intracellular full-length L1 and L2 levels” value in data set [4] is “prevented L1 and L2 degradation”.

`CCCCCCCCCCCCCCCCCC(=O)NCCCC[C@H](NC(=O)[C@H](CCCCNC(=S)Nc1ccc2c(c1)C(=O)OC21c2ccc(O)cc2Oc2cc(O)ccc21)NC(=O)[C@H](CO)NC(=O)CNC(=O)[C@H](CC(C)C)NC(=O)[C@@H](NC(=O)[C@H](CCCNC(=N)N)NC(=O)[C@H](CC(=O)O)NC(=O)[C@H](C)NC(=O)[C@H](CC(C)C)NC(=O)[C@@H](NC(=O)[C@H](CC(N)=O)NC(=O)CNC(=O)[C@H](CCC(=O)O)NC(=O)[C@@H](NC(=O)[C@H](CCCCN)NC(=O)[C@H](CC(N)=O)NC(=O)[C@@H](NC(=O)[C@@H](NC(=O)[C@H](CC(=O)O)NC(=O)[C@@H]1CCCN1C(=O)[C@@H]1CCCN1C(=O)[C@@H]1CSSC[C@H](NC(=O)[C@H](CCC(N)=O)NC(=O)[C@H](CCCNC(=N)N)NC(=O)[C@H](Cc2ccc(O)cc2)NC(=O)[C@H](CC(C)C)NC(=O)[C@H](CC(N)=O)NC(=O)[C@H](CO)NC(=O)[C@H](C)NC(=O)[C@H](CO)NC(=O)[C@@H](N)CC(=O)O)C(=O)N[C@@H](CCC(N)=O)C(=O)N[C@@H](C(C)C)C(=O)N[C@@H]([C@@H](C)O)C(=O)NCC(=O)N[C@@H](CC(N)=O)C(=O)N1)C(C)C)C(C)C)C(C)C)[C@@H](C)O)[C@@H](C)CC)C(=O)O` [FITC-m13-46st] (H-DSASNLYRQCQVTGNCPPDVVNKVEGNTLADRILGSK(FITC)K(Stearoyl)-OH; disulfide 10-16) had a half-inhibitory concentration (IC50) in data set [1] (4 h) below 10 nM. Further, in data set [5], the “cell binding and uptake of the lipopeptide” value is “readily detected on HeLa cells at 15 min postincubation, and significant internalization was observed at 30 min postincubation and became apparent at 2 h postincubation”.

Take “pZeo5-tSA-Furin-13-46-CVIM: HPV16 L2N13-46 lipopeptide with deletion of QYGT”: the “Relative anti-HPV activity” value in data set [1] is 5%.
